Measured values reported in patent EP3417074B1, “ANALYTICAL METHODS AND ARRAYS FOR USE IN THE SAME” (SenzaGen AB, priority 2016, dated 2017).
Values joined by “and” are separate entries in the source; they are usually repeats but may differ in a detail not shown here. Equal entries are not always repeated. “Also recorded” adds a separate entry of the source. Structures can show the parent of a compound that is named as a salt. Where two headings read alike, the source gives them in different places.

Assays:
[1] = cited from earlier work; for binary class (HP*): Table 1, based on [41] where available, HP 1-4=S, 5-6=NS, otherwise according to CLP
MUTZ-3 cells [2] = assay: GARD random forest model for prediction of CLP categories (52 transcripts, Example A); conditions: for predicted CLP: Suppl. Table 1, separate replicates in the test set; for GARD predicted CLP: Table 6, independent test set, majority voting across replicates; for CLP category predicted by the random forest model: test set, majority votes
MUTZ-3 cells [3] = assay: GARD binary classification (SVM on GARD prediction signature, 200 transcripts); conditions: for SVM DV: Table 8, average SVM decision value derived from triplicates; for GARD binary prediction: Table 1, sensitizer if median calibrated SVM DV of replicates > 0
Excerpt: (§1) The SVM model had been developed for binary classifications (sensitizer versus non-sensitizer).

human skin = conditions: cited from earlier work; for human potency category: Basketter et al. [41]; for Human potency [41]: Table 6, test set
MUTZ-3 cells [4] = assay: Cytotoxicity / viability by flow cytometry (propidium iodide); conditions: Table 1, 24 hours exposure
MUTZ-3 cells [5] = conditions: human
Excerpt: as §1

Row | SMILES | binary class ([1]; Table 4) | SVM DV (MUTZ-3 cells [3]) | HP (human skin; Table 4) | GARD binary prediction (MUTZ-3 cells [3]) | binary class (HP*) [1] | cytotox (MUTZ-3 cells [4]) | other results
1 | CCCCBr [1-bromobutane] | non-sens | – | – | – | – | – | predicted CLP (MUTZ-3 cells [2]): no cat; GARD predicted CLP (MUTZ-3 cells [2]): no cat
2 | O=[N+]([O-])c1ccc(Cl)c([N+](=O)[O-])c1 [2,4-dinitrochlorobenzene] | sens | 6,31 | – | – | – | – | binary class ([1]; Table 2, benchmark chemicals): sens; HP (human skin): 1; Human potency (human skin): 1
3 | Sc1nc2ccccc2s1 [2-mercaptobenzothiazole] | sens | 2,52 | 3 | – | – | – | Human potency (human skin; Table 8): 3
4 | Cc1cccc(O)c1O [3-Methylcatechol] | sens | – | – | S | S | yes | –
5 | CCCCCCCC/C=C\CCCCCCCC(=O)OCCOCC(OCCO)C1OCC(OCCO)C1OCCO (stereo not drawn) [Tween 80] | non-sens | -1,39 | 6 | – | – | – | Human potency (human skin; Table 8): 6
6 | CC(C)C1=CC2=CC[C@@H]3[C@](C)(CCC[C@@]3(C)C(=O)O)[C@H]2CC1 [abietic acid] | sens | – | 3 | S | S | no | –
7 | CCCCC/C(=C/c1ccccc1)CO [amylcinnamyl alcohol] | – | – | – | S | – | yes | HP (human skin): 4
8 | CCOC(=O)c1ccc(N)cc1 [benzocaine] | sens | – | 4 | – | S | no | binary classification according to the established GARD model (MUTZ-3 cells [3]; sensitizing chemicals close to the cut-off defined by benchmark samples): misclassified
9 | OCc1ccccc1 [benzyl alcohol] | non-sens | – | – | – | – | no | –
10 | O=C(OCc1ccccc1)c1ccccc1 [benzyl benzoate] | – | – | – | S | – | yes | predicted CLP (MUTZ-3 cells [2]): 1B; GARD predicted CLP (MUTZ-3 cells [2]): 1B
11 | CN(C)CCCN1c2ccccc2Sc2ccc(Cl)cc21 [chlorpromazine] | sens | – | 3 | S | S | yes | –
12 | OCC=Cc1ccccc1 [cinnamyl alcohol] | sens | 2,94 | 3 | – | – | – | Human potency (human skin; Table 8): 3
13 | CC(C)=CCCC(C)=CC=O [citral] | sens | – | – | S | S | yes | HP (human skin): 3
14 | O=C(O)CC(O)(CC(=O)O)C(=O)O [citric acid] | – | – | – | – | – | no | –
15 | CC(C)=CCCC(C)CCO (stereo not drawn) [citronellol] | sens | – | 5 | S | – | no | –
16 | Clc1nc(Cl)nc(Cl)n1 [cyanuric chloride] | sens | – | – | – | S | yes | predicted CLP (MUTZ-3 cells [2]): 1B and no cat (2×); GARD predicted CLP (MUTZ-3 cells [2]): no cat; CLP category predicted by the random forest model (MUTZ-3 cells [2]): no cat; also recorded: no category
17 | OCCNCCO [diethanolamine] | sens | – | – | – | – | no | HP (human skin): 5
18 | CCOC(=O)/C=C\C(=O)OCC [diethyl maleate] | sens | – | 2 | – | – | – | human potency category (human skin): 2; Human potency [41] (human skin): 2; predicted CLP (MUTZ-3 cells [2]): 1A; GARD predicted CLP (MUTZ-3 cells [2]): 1A; CLP category predicted by the random forest model (MUTZ-3 cells [2]): 1A
19 | CCOC(=O)c1ccccc1C(=O)OCC [diethyl phthalate] | non-sens | -2,15 | – | – | – | – | Human potency [41] (human skin): 6; HP (human skin): 6; Human potency (human skin): 6; predicted CLP (MUTZ-3 cells [2]): no cat; GARD predicted CLP (MUTZ-3 cells [2]): no cat

Row | SMILES | binary class ([1]; Table 4) | SVM DV (MUTZ-3 cells [3]) | HP (human skin; Table 4) | GARD binary prediction (MUTZ-3 cells [3]) | binary class (HP*) [1] | cytotox (MUTZ-3 cells [4]) | other results
20 | C=CCc1ccc(O)c(OC)c1 [eugenol] | – | – | – | – | – | – | HP (human skin): 3; Human potency (human skin): 3; SVM DV (MUTZ-3 cells [5]; 24 h): 1,02
21 | C=O [formaldehyde] | – | – | – | – | – | – | HP (human skin): 2; Human potency (human skin): 2; SVM DV (MUTZ-3 cells [5]): 2,32
22 | O=CCCCC=O [glutaraldehyde] | sens | – | 2 | S | S | yes | Human potency [41] (human skin): 2; predicted CLP (MUTZ-3 cells [2]): 1A; GARD predicted CLP (MUTZ-3 cells [2]): 1A
23 | CCCCCCOC(=O)c1ccccc1O [hexyl salicylate] | sens | – | – | S | S | yes | HP (human skin): 4
24 | CCCCCCC(C=O)=Cc1ccccc1 [hexylcinnamic aldehyde] | sens | 1,24 | 5 | – | – | – | binary class ([1]; Table 2, benchmark chemicals): sens; HP (human skin; Table 2, benchmark chemicals): 5; Human potency (human skin; Table 8): 5
25 | CC=Cc1ccc(O)c(OC)c1 [isoeugenol] | sens | 1,91 | 2 | – | – | – | Human potency (human skin; Table 8): 2
26 | CC(C)O [isopropanol] | non-sens | -1,37 | 5 | – | – | – | Human potency (human skin; Table 8): 5
27 | CCCCCCCCCCCCCC(=O)OC(C)C [isopropyl myristate] | sens | – | 5 | – | – | no | –
28 | C=CC(C)(O)CCC=C(C)C (stereo not drawn) [linalool] | sens | – | 4 | – | S | no | Human potency [41] (human skin): 4; predicted CLP (MUTZ-3 cells [2]): no cat and 1B (2×); GARD predicted CLP (MUTZ-3 cells [2]): 1B
29 | CC(C)(O)CCCC1=CCC(C=O)CC1 (stereo not drawn) [lyral] | sens | – | 2 | S | S | yes | human potency category (human skin): 2; Human potency [41] (human skin): 2; predicted CLP (MUTZ-3 cells [2]): 1A (2×) and 1B; GARD predicted CLP (MUTZ-3 cells [2]): 1A; CLP category predicted by the random forest model (MUTZ-3 cells [2]): 1A
30 | CCCCCC#CC(=O)OC [methyl heptine carbonate] | sens | – | 2 | S | S | yes | –
31 | COC(=O)c1ccccc1O [methyl salicylate] | non-sens | -1,53 | 5 | – | – | – | Human potency (human skin; Table 8): 5
32 | CCCCCCCC(=O)O [octanoic acid] | non-sens | -1,19 | – | – | – | – | Human potency (human skin; Table 8): 6; HP (human skin): 6
33 | Nc1ccc(N)cc1 [p-phenylenediamine] | sens | 5,32 | – | – | – | – | binary class ([1]; Table 2, benchmark chemicals): sens; Human potency (human skin; Table 8): 1; HP (human skin): 1
34 | Oc1c(Cl)c(Cl)c(Cl)c(Cl)c1Cl [pentachlorophenol] | sens | – | – | – | – | no | HP (human skin): 5
35 | [K+].[K+].[O]=[Cr](=[O])([O-])[O][Cr](=[O])(=[O])[O-] [potassium dichromate] | sens | 8,45 | 1 | – | – | – | Human potency (human skin; Table 8): 1
36 | CCCOC(=O)c1cc(O)c(O)c(O)c1 [propyl gallate] | sens | – | 2 | S | S | yes | Human potency [41] (human skin): 2; predicted CLP (MUTZ-3 cells [2]): 1A; GARD predicted CLP (MUTZ-3 cells [2]): 1A
37 | O=C(O)C(O)C(O)C(=O)O (stereo not drawn) [tartaric acid] | – | – | – | – | – | no | –
